Reference: PubChem BioAssay (NCI)
Several values for one entry are separate records, joined by “and”; a condition that tells them apart may be missing. Equal entries are not always repeated.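 Following 48 hours of exposure in 96-well plates, responses at five concentrations were used to interpolate endpoints linearly. GI50 marks 50% less growth. TGI marks complete inhibition of growth.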

Experiments:
Assay in all cases: NCI-60 cell line screen, 48 h
OVCAR-4 ovarian = test system: OVCAR-4 ovarian
LOX IMVI melanoma = test system: LOX IMVI melanoma
SK-MEL-5 melanoma = test system: SK-MEL-5 melanoma
A498 renal = test system: A498 renal
K-562 leukemia = test system: K-562 leukemia
IGROV1 ovarian = test system: IGROV1 ovarian
OVCAR-8 ovarian = test system: OVCAR-8 ovarian
HCT-116 colon = test system: HCT-116 colon
A549 NSCLC = test system: A549 NSCLC
SF-295 CNS = test system: SF-295 CNS

| Compound | TGI (OVCAR-4 ovarian) | TGI (LOX IMVI melanoma) | TGI (SK-MEL-5 melanoma) | TGI (A498 renal) | TGI (K-562 leukemia) | TGI (IGROV1 ovarian) | TGI (OVCAR-8 ovarian) | TGI (HCT-116 colon) | TGI (A549 NSCLC) | TGI (SF-295 CNS) | GI50 (OVCAR-4 ovarian) | GI50 (LOX IMVI melanoma) | GI50 (SK-MEL-5 melanoma) | GI50 (A498 renal) | GI50 (K-562 leukemia) | GI50 (IGROV1 ovarian) | GI50 (OVCAR-8 ovarian) | GI50 (HCT-116 colon) | GI50 (A549 NSCLC) | GI50 (SF-295 CNS) |
| --- | --- | --- | --- | --- | --- | --- | --- | --- | --- | --- | --- | --- | --- | --- | --- | --- | --- | --- | --- | --- |
| Cc1cc(C)nc(NC(=O)COc2ccc(Cl)cc2)c1 | > 100 µM | > 100 µM | > 100 µM | > 100 µM | > 100 µM | > 100 µM | > 100 µM | > 100 µM | > 100 µM | > 100 µM |  |  |  |  |  |  |  |  |  |  |
| COC(=O)N[C@@H](C)CNc1nccc(-c2cn(C(C)C)nc2-c2cc(Cl)cc(NS(C)(=O)=O)c2F)n1 | > 100 µM | > 100 µM | > 100 µM | > 100 µM | > 100 µM | > 100 µM | > 100 µM | > 100 µM | > 100 µM | > 100 µM | > 100 µM | 0.268 µM | > 100 µM | 0.336 µM | 33.6 µM | 0.678 µM | > 100 µM | 0.662 µM | 48.2 µM | 55.7 µM |
| CCOC(=O)NN1C(=O)C(=P(c2ccccc2)(c2ccccc2)c2ccccc2)C(C(=O)OC)=C1C | > 100 µM | > 100 µM | > 100 µM | > 100 µM | > 100 µM | > 100 µM | > 100 µM | > 100 µM | > 100 µM | > 100 µM |  |  |  |  |  |  |  |  |  |  |
| CCS(=O)(=O)c1cccc(-c2cc(C(=O)NC3CCN(C)CC3)c(C)c3[nH]c4ncc(C)cc4c23)c1 | > 7.71 µM and 4.39 µM | 1.22 µM and 0.747 µM | > 9.22 µM and 2.65 µM | 1.65 µM and 0.79 µM | > 10 µM and 11 µM | 1.76 µM and 2.55 µM | > 10 µM and 11.1 µM | 2.66 µM and 5.4 µM | 4.12 µM and 3.79 µM | > 10 µM and 5.63 µM | 1.04 µM and 0.249 µM | 0.168 µM and 0.16 µM | 2.29 µM and 0.798 µM | 0.453 µM and 0.124 µM | 0.21 µM and 0.09 µM | 0.179 µM and 0.111 µM | 1.58 µM and 0.855 µM | 0.128 µM and 0.0788 µM | 0.49 µM and 0.169 µM | 1.08 µM and 0.832 µM |
| COc1ccc(N=c2nc3sc4cc(Cl)ccc4n3c(N)c2C#N)cc1 | > 100 µM | 5.07 µM | 3.42 µM | 7.05 µM | > 100 µM | > 66.1 µM | > 100 µM | > 100 µM | > 100 µM | 23.1 µM | 3.51 µM | 2.06 µM | 1.64 µM | 2.64 µM | 22.5 µM | 3.48 µM | 5.05 µM | 6.5 µM | 15.4 µM | 2.51 µM |
| O=S1(=O)CCC2=CC(C(F)(F)F)=CC(C(F)(F)F)=CN21 | 4.24 µM | 4.95 µM | 3.02 µM | 3.84 µM | 6.61 µM | 3.66 µM | 2.25 µM | 0.712 µM | 9.45 µM | 4.8 µM |  |  |  |  |  |  |  |  |  |  |
| O=C1N=C2N=C(c3ccc(Cl)cc3)N(c3ccc(Cl)cc3)N2Sc2ccccc21 | > 100 µM | > 100 µM | > 100 µM | > 100 µM | > 100 µM | > 100 µM | > 100 µM | > 100 µM | > 100 µM | > 100 µM |  |  |  |  |  |  |  |  |  |  |
| Cc1nc(C(=O)OCc2ccccc2)cc(OCc2ccccc2)c1C | 33.6 µM | 36 µM | 26 µM | > 85.6 µM | 36.8 µM | 47.7 µM | 69.2 µM | 32.6 µM | 49.4 µM | 46.8 µM | 11.8 µM | 17.1 µM | 10.7 µM | 27.9 µM | 8.8 µM | 21.4 µM | 21.9 µM | 13.6 µM | 19.3 µM | 19.7 µM |
| c1ccc(C2N=C(c3ccccn3)C(c3ccccn3)=NC2c2ccccc2)cc1 (stereo not given) | > 100 µM | > 100 µM | > 100 µM | > 100 µM | > 100 µM | > 100 µM | > 100 µM | > 100 µM | > 100 µM | > 100 µM |  |  |  |  |  |  |  |  |  |  |
| CC(=O)c1nc(-c2ccc(C[C@@H](CNC(=O)CN(C)C)NC(=O)c3ccc(OC(C)C)c(Cl)c3)cc2)cn1C | 22.9 µM | 16.5 µM | 5.51 µM | 2.04 µM | 12.9 µM | 21.9 µM | 23.4 µM | 13.1 µM | 19.1 µM | 7.75 µM | 0.842 µM | 0.16 µM | 0.0707 µM | 0.0407 µM | < 0.0196 µM | 0.896 µM | 0.0617 µM | 0.0393 µM | 0.0518 µM | 0.0338 µM |
| Fc1ccc(-c2ncn(C3CCNCC3)c2-c2ccnc(Oc3ccc(Cl)cc3)n2)cc1 | 9.69 µM | 8.29 µM | 6.41 µM | 21.4 µM | 11.2 µM | 13.3 µM | 8.99 µM | 7.65 µM | 12.8 µM | 9.26 µM | 4.15 µM | 4.16 µM | 3.22 µM | 3.67 µM | 4.7 µM | 4.62 µM | 4.14 µM | 3.97 µM | 5.23 µM | 4.39 µM |
| O=C(OCC1=CC(=O)c2ccccc2C1=O)c1ccccc1 | 28.4 µM | 21.5 µM | 2.68 µM | 36.8 µM | 34.5 µM | 25.6 µM | 29.1 µM | 29.7 µM | 6.24 µM | 20.5 µM | 13.2 µM | 5.69 µM | 1.31 µM | 18.6 µM | 9.47 µM | 12.5 µM | 14.4 µM | 15.5 µM | 2.41 µM | 6.41 µM |
| O=C(NC1=C(Cl)C(=O)c2ccccc2C1=O)C(=O)c1c(O)c2ccccc2oc1=O | 19.4 µM | > 45.9 µM | 1.6 µM | 33.9 µM | > 100 µM | 16.1 µM | 31 µM | 7.47 µM | 6.07 µM | 9.58 µM |  |  |  |  |  |  |  |  |  |  |
| BrCc1ccc2ccc3ccc(CBr)nc3c2n1 | 12.3 µM | 3.21 µM | 8.16 µM | 8.38 µM | > 28.4 µM | 10.8 µM | 15.7 µM | 6.7 µM | 34.7 µM | 28.6 µM |  |  |  |  |  |  |  |  |  |  |
| COc1ccc(/C=C(\C#N)c2cc(OC)c(OC)c(OC)c2)cc1 | > 100 µM | > 100 µM | 0.0644 µM | 1.58 µM | > 100 µM | > 100 µM | > 82.8 µM | > 100 µM | > 75.2 µM | 50.7 µM | 0.0297 µM | 0.0258 µM | 0.0182 µM | 0.0123 µM | < 0.01 µM | 0.0432 µM | 0.0293 µM | 0.0161 µM | 0.0288 µM | < 0.0156 µM |
